Patent publication US11685732B2, “MYST family histone acetyltransferase inhibitors” (Epizyme, Inc., priority 2017, dated 2023)
pIC50: −log10 of the molar value.

How the values were obtained:
[1] = system: KMS34 cells; experiment: Long term proliferation assay (14-day), KMS34; assay type: cell-based; conditions: KMS-34, 336 h; KMS34, MM; 14-day timepoint; absolute IC50
Description: (§1) Long term proliferation assay. A panel of multiple myeloma (MM) and acute myeloid leukemia (AML) cell lines were tested in 14-day proliferation assays. Exponentially growing cells were plated, in triplicate, in 96-well plates at the appropriate cell density in a final volume of 150 μL. Cells were incubated in the presence of increasing concentrations of compound A-30. Viable cell number was determined at 0, 4, 7, 11, and 14 days using Calcein staining and using an Accumen instrument to enumerate the number of cells. On days of cell counts, growth media and compound A-30 were replaced, and cells split back to initial density. Total cell number is expressed as split-adjusted viable cells per well.
(§2) Calculations were performed as follows:
(§3) First, the inhibition of proliferation was calculated for each well at each treatment concentration at each timepoint with the following formula:
(§4) [formula] Then, for each cell line, concentration response curves were plotted as average and standard deviation from triplicate determinations as percent inhibition vs log of concentration of compound A-30. Absolute IC50 values (concentration of compound at which 50% inhibition occurs) were determined from the curve at each timepoint using Graphpad Prism software. An IC50 value of ≤10 μM is designated as “A”; an IC50 value of >10 μM is designated as “B”.

[2] = system: LP1 cells; experiment: Long term proliferation assay (14-day), LP1; assay type: cell-based; conditions: Homo sapiens, LP-1, 336 h; LP1, MM; 14-day timepoint; absolute IC50
Description: as §1, §2, §3, §4

[3] = system: SEM cells; experiment: Long term proliferation assay (14-day), SEM; assay type: cell-based; conditions: 336 h, B-ALL, 14-day timepoint, absolute IC50
Description: as §1, §2, §3, §4

[4] = target: KAT-5 (Homo sapiens (Human), UniProt Q92993); experiment: KAT-5 biochemical inhibition assay (SAMDI mass spectrometry); conditions: Table 5
Summary of the method: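 KAT-5 at 9 nM final was preincubated with serially diluted compound (2% DMSO) in 50 mM Tris pH 8.0 with 1 mM DTT. Reaction ran with 1 μM peptide substrate and 0.5 μM acetyl-CoA for 90 min at 25° C, was quenched with 0.5% formic acid, and was read by SAMDI-TOF mass spectrometry.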

[5] = system: OCIAML2 cells; experiment: Long term proliferation assay (14-day), OCIAML2; assay type: cell-based; conditions: Homo sapiens, OCI-AML2, 336 h; OCIAML2, AML; 14-day timepoint; absolute IC50
Description: as §1, §2, §3, §4

[6] = system: THP1 cells; experiment: Long term proliferation assay (14-day), THP1; assay type: cell-based; conditions: Homo sapiens, THP-1, 336 h; THP1, AML; 14-day timepoint; absolute IC50
Description: as §1, §2, §3, §4

[7] = target: KAT-7 (Homo sapiens (Human), UniProt O95251); experiment: KAT-7 biochemical inhibition assay (SAMDI mass spectrometry); conditions: Table 5
Summary of the method: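 KAT-7 (6 nM) was pre-incubated with serially diluted compound (2% DMSO) in Tris pH 8.0 with DTT. Reaction with 1 μM peptide and 2 μM acetyl-CoA ran 120 min at 25 °C and was stopped with 0.5% formic acid. Acetylation was read by SAMDI-TOF mass spectrometry to give IC50.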

[8] = system: RPMI8226 cells; experiment: Long term proliferation assay (14-day), RPMI8226; assay type: cell-based; conditions: Homo sapiens, RPMI-8226, 336 h; RPMI8226, MM; 14-day timepoint; absolute IC50
Description: as §1, §2, §3, §4

[9] = system: OCIAML3 cells; experiment: Long term proliferation assay (14-day), OCIAML3; assay type: cell-based; conditions: Homo sapiens, OCI-AML-3, 336 h, 14-day timepoint, absolute IC50
Description: as §1, §2, §3, §4

[10] = system: H3K23 acetylation in CAL-120 cells; experiment: Inhibition of acetylation of H3K23 in Human cell line CAL-120; assay type: cell-based; conditions: CAL-120 cell line, 3 hours, serial dilutions starting at 10 μM; FIG. 1
Description: Inhibition of acetylation of H3K23 in Human cell line CAL-120. Cell line CAL-120 was plated in eleven 10 cm tissue culture dishes at a cell density of 4×10^5 cells/cm^2 and treated with ten 2-fold serial dilutions of compound A-30 starting at 10 μM and one dish with DMSO (vehicle control) for 3 hours. Cells were tripsinized, washed twice with ice cold PBS and snap-frozen. Histones were extracted from cell pellets. Protein concentration was assessed and 60 ng of protein sample from histone extraction was prepared in triplicate in 100 μl coating buffer (0.05% w/v BSA in PBS) and added directly to high binding 96 well plates. Plates were left at 4° C. overnight to allow protein to adhere. Coating buffer with histones was discarded and plates blotted, and 100 μL per well of primary antibody solution of rabbit anti-H3K23ac antibody (Millipore 07-355) (1:600) and mouse anti-total H3 antibody (CST-14269) (1:500) in Odyssey buffer with 0.1% Tween 20 (v/v) was added to the wells of the plate and incubated for 1 hour. […]
Calculations were performed as follows: First, the ratio for each well was determined by:
[formula] Then, the average of the ratio values for each test well was calculated and used to determine the percent of H3K23Ac from vehicle for each test well in the plate: […]

[11] = system: NOMO1 cells; experiment: Long term proliferation assay (14-day), NOMO1; assay type: cell-based; conditions: Homo sapiens, NOMO-1, 336 h; NOMO1, AML; 14-day timepoint; absolute IC50
Description: as §1, §2, §3, §4

[12] = system: KMS11 cells; experiment: Long term proliferation assay (14-day), KMS11; assay type: cell-based; conditions: Homo sapiens, KMS-11, 336 h; KMS11, MM; 14-day timepoint; absolute IC50
Description: as §1, §2, §3, §4

[13] = system: MOLM13 cells; experiment: Long term proliferation assay (14-day), MOLM13; assay type: cell-based; conditions: Homo sapiens, MOLM-13, 336 h; MOLM13, AML; 14-day timepoint; absolute IC50
Description: as §1, §2, §3, §4

[14] = target: KAT-6A (Homo sapiens (Human), UniProt Q92794); experiment: KAT-6A biochemical inhibition assay (SAMDI mass spectrometry); conditions: Table 5
Summary of the method: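 Enzyme (12.5 nM final) pre-incubated with serially diluted compounds (2% DMSO final) in 50 mM Tris pH 8.0 with Tween20, gelatin and 1 mM DTT. Reaction started with 1 μM peptide substrate and 1 μM acetyl-CoA, run 90 min at 25 °C, quenched with 0.5% formic acid, read by SAMDI-TOF mass spectrometry; IC50 derived.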

KAT-7, sequence (O95251 other isoform, or with tags, fused parts or gaps): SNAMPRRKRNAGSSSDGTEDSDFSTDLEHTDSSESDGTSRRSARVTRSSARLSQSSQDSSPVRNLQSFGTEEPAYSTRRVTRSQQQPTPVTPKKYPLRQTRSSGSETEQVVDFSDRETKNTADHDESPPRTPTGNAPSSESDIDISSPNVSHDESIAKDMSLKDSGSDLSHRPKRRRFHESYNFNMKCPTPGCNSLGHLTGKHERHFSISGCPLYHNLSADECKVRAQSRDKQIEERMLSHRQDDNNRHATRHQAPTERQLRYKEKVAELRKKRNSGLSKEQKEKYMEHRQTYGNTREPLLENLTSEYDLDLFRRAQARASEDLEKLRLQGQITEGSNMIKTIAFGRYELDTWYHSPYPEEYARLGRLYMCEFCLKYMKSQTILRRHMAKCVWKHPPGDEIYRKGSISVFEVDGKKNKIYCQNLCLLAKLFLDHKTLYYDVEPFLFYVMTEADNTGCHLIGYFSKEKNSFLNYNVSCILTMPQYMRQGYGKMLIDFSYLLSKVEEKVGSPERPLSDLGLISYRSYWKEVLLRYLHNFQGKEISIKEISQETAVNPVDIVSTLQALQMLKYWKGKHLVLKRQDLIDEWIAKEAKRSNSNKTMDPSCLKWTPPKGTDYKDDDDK
KAT-6A, sequence (Q92794 other isoform, or with tags, fused parts or gaps): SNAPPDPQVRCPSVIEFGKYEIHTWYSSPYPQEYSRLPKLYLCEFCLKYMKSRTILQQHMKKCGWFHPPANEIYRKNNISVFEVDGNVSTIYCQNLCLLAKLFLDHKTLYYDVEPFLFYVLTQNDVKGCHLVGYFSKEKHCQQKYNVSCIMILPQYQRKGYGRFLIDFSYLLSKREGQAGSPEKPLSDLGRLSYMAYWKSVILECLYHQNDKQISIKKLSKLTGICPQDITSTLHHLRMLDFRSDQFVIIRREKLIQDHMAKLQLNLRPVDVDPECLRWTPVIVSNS
KAT-5, sequence (Q92993 other isoform, or with tags, fused parts or gaps): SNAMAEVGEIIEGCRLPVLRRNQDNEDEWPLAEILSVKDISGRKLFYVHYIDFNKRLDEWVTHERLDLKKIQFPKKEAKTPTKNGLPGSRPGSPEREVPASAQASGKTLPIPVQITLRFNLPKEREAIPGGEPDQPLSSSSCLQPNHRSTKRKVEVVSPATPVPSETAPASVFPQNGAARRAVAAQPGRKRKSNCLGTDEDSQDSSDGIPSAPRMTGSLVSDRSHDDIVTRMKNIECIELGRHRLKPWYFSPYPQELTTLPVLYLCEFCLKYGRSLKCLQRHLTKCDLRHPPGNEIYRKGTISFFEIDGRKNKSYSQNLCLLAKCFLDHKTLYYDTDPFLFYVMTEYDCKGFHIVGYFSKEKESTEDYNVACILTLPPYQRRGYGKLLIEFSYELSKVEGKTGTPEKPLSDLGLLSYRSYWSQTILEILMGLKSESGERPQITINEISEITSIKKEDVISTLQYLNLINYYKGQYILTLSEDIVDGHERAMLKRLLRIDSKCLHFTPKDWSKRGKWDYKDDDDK

- pIC50 [4]: ≥ 5.00
- pIC50 [6]: < 5.00
- pIC50 [7]: ≥ 5.00
- pIC50 [8]: ≥ 5.00
- pIC50 [13]: < 5.00
- pIC50 [14]: ≥ 6.00
Compound: COCc1cc(Cl)c(F)c(C(=O)NNS(=O)(=O)c2cccc(O)c2)c1 [Compound A-30]
- pIC50 [1]: ≥ 5.00
- pIC50 [2]: ≥ 5.00
- pIC50 [3]: < 5.00
- pIC50 [5]: < 5.00
- pIC50 [9]: ≥ 5.00
- inhibition of acetylation of H3K23 [10]: inhibition of acetylation of H3 K23
- pIC50 [11]: ≥ 5.00
- pIC50 [12]: ≥ 5.00
